Our source for the IC50 values is US20250179073A1, “TRICYCLIC HETEROCYCLE COMPOUNDS AS IAP ANTAGONISTS” (Ascentage Pharma (Suzhou) Co., Ltd., priority 2022, published 2025).

For one test, the system named is MDA-MB-231 cells. In words: Cell proliferation assay (CellTiter-Glo), MDA-MB-231. The format is cell-based. As to conditions: 72 h treatment, Celltiter-Glo luminescence. How it is done: Example 238: Cell Proliferation Assay
MDA-MB-231 and EVSA-T cells (10000 cells/well) were plated onto 96-well plates (Corning, Cat #3917) in 95 μL of medium (RPMI-1640 containing 10% FBS and MEM containing 10% FBS, respectively). Compounds with various concentrations ([…]) were added to the wells. After treatment for 72 h, 30 μL of Celltiter-Glo reagent (Promega, Cat #G7573) was added and incubated at room temperature for 15 min, then the luminescent signal was determined using a microplate reader (Biotek, SynergyH1). The inhibitor dose-response curves were analyzed using normalized IC50 regression curve fitting with control based normalization.
For orientation: In ATP-based viability assays light output follows the ATP content of the culture.
`C[C@@H]1CN(CC(=O)N2CC(C)(C)c3c2cc(Cc2ccc(F)cc2)c2nc(N4C[C@@H](O)[C@H](O)C4)nn32)[C@@H](CN2CCOC[C@H]2C)CN1` [Compound 188, 1-(2-((3R,4R)-3,4-dihydroxypyrrolidin-1-yl)-4-(4-fluorobenzyl)-8,8-dimethyl-7,8-dihydro-6H-pyrrolo[2,3-e][1,2,4]triazolo[1,5-a]pyridin-6-yl)-2-((2R,5R)-5-methyl-2-(((R)-3-methylmorpholino)methyl)piperazin-1-yl)ethan-1-one]: the IC50 – broadly, the point on the concentration scale where inhibition reaches its midpoint – was 80 nM.

Staying with this test, now noted: Homo sapiens, MDA-MB-231, 72 h, 72 h treatment, Celltiter-Glo luminescence.
As to `C[C@@H]1CN(CC(=O)N2CC(C)(C)c3c2cc(Cc2ccc(F)cc2)c2nc(C(F)(F)F)cn32)[C@@H](CN2CCN(CC#N)C[C@H]2C)CN1` [Compound 175, 2-((R)-4-(((2R,5R)-1-(2-(4-(4-fluorobenzyl)-8,8-dimethyl-2-(trifluoromethyl)-7,8-dihydro-6H-imidazo[1,2-a]pyrrolo[2,3-e]pyridin-6-yl)-2-oxoethyl)-5-methylpiperazin-2-yl)methyl)-3-methylpiperazin-1-yl)acetonitrile], the concentration for half-maximal inhibition (IC50) came to 120 nM. On the same count and under the same terms, the same measure for `C[C@@H]1CN(CC(=O)N2CC(C)(C)c3c2cc(S(=O)(=O)c2ccc(F)cc2)c2ncnn32)[C@@H](CN2CCOC[C@H]2C)CN1` [Compound 176, 1-(4-((4-fluorophenyl)sulfonyl)-8,8-dimethyl-7,8-dihydro-6H-pyrrolo[2,3-e][1,2,4]triazolo[1,5-a]pyridin-6-yl)-2-((2R,5R)-5-methyl-2-(((R)-3-methylmorpholino)methyl)piperazin-1-yl)ethan-1-one]: 190 nM.

As for `C[C@@H]1CN(CC(=O)N2CC(C)(C)c3c2cc(Cc2ccc(F)cc2)c2nc(C(F)(F)F)cn32)[C@@H](CN2CCN(S(C)(=O)=O)C[C@H]2C)CN1` [Compound 178, 1-(4-(4-fluorobenzyl)-8,8-dimethyl-2-(trifluoromethyl)-7,8-dihydro-6H-imidazo[1,2-a]pyrrolo[2,3-e]pyridin-6-yl)-2-((2R,5R)-5-methyl-2-(((R)-2-methyl-4-(methylsulfonyl)piperazin-1-yl)methyl)piperazin-1-yl)ethan-1-one], the IC50 is 490 nM. With `C[C@@H]1CN(CC(=O)N2CC3(CCOCC3)c3c2cc(Cc2ccc(F)cc2)c2nc(C(F)(F)F)cn32)[C@@H](CN2CCOC[C@H]2C)CN1` [Compound 183, 1-(4-(4-fluorobenzyl)-2-(trifluoromethyl)-2′,3′,5′,6′-tetrahydrospiro[imidazo[1,2-a]pyrrolo[2,3-e]pyridine-8,4′-pyran]-6(7H)-yl)-2-((2R,5R)-5-methyl-2-(((R)-3-methylmorpholino)methyl)piperazin-1-yl)ethan-1-one], the half-maximal inhibitory concentration (IC50) stood at 810 nM. The same measure, in the same setting: the same measure for `Cc1nccn1C[C@H]1CN[C@H](C)CN1CC(=O)N1CC(C)(C)c2c1cc(Cc1ccc(F)cc1)c1nc(C(F)(F)F)cn21` [Compound 186, 1-(4-(4-fluorobenzyl)-8,8-dimethyl-2-(trifluoromethyl)-7,8-dihydro-6H-imidazo[1,2-a]pyrrolo[2,3-e]pyridin-6-yl)-2-((2R,5R)-5-methyl-2-((2-methyl-1H-imidazol-1-yl)methyl)piperazin-1-yl)ethan-1-one]: 230 nM; for `C[C@@H]1CN(CC(=O)N2CC(C)(C)c3c2cc(Cc2ccc(F)cc2)c2ncnn32)[C@@H](CN2CCNC(=O)[C@H]2C)CN1` [Compound 191, (R)-4-(((2R,5R)-1-(2-(4-(4-fluorobenzyl)-8,8-dimethyl-7,8-dihydro-6H-pyrrolo[2,3-e][1,2,4]triazolo[1,5-a]pyridin-6-yl)-2-oxoethyl)-5-methylpiperazin-2-yl)methyl)-3-methylpiperazin-2-one]: 80 nM; for `C[C@@H]1CN(CC(=O)N2CC(C)(C)c3c2cc(N2CCN(C)c4cc(F)ccc42)c2ncnn32)[C@@H](CN2CCOC[C@H]2C)CN1` [Compound 194, 1-(4-(6-fluoro-4-methyl-3,4-dihydroquinoxalin-1(2H)-yl)-8,8-dimethyl-7,8-dihydro-6H-pyrrolo[2,3-e][1,2,4]triazolo[1,5-a]pyridin-6-yl)-2-((2R,5R)-5-methyl-2-(((R)-3-methylmorpholino)methyl)piperazin-1-yl)ethan-1-one]: 680 nM.
